Results published in US7750155B2, “Pyrazinyl hydroxyacrylamide compounds having an inhibitory effect on the activity of histone deacetylase” (Astellas Pharma Inc., priority 2006, dated 2010).

Tests used:
[1] = test system: splenic cells of Lewis rats (T lymphocyte blastogenesis); assay: Test 2: T-cell growth inhibitor activity (T lymphocyte blastogenesis, Concanavalin A, AlamarBlue); assay type: cell-based; settings: Lewis rat splenic cells, Concanavalin A 1 μg/mL, 72 hours, read-out: Test 2: T-cell growth inhibitory activity IC50
Procedure: Test 2: Determination of T-Cell Growth Inhibitor Activity
The T lymphocyte blastogenesis test was performed in microtiter plates with each well containing 1.5×10^5 splenic cells of Lewis rats in 0.1 mL RPMI-1640 medium supplemented with 10% fetal bovine serum (FBS), […] 2-mercaptoethanol, penicilln (100 units/mL) and streptomycin (100 μg/mL), to which Concanavalin A (1 μg/mL) was added. The cells were incubated at 37° C. in a humidified atmosphere of 5% CO2 for 72 hours. After the culture period, suppressive activities of the test compounds in T lymphocyte blastogenesis were quantified by AlamarBlue (trademark) Assay. The test samples were dissolved in DMSO and further diluted with RPMI-1640 medium and added to the culture. The activities of the test compounds were expressed as IC50.

[2] = test system: T1, human histone deacetylase partially purified from human T cell leukemia Jurkat cells; assay: Test 1: Determination of histone deacetylase inhibitor activity ([3H]acetyl histone deacetylation); assay type: biochemical; settings: partially purified human HDAC from Jurkat cells, [3H]acetyl histone substrate, 25° C., 30 minutes; read-out: Test 1: HDAC inhibitory activity IC50
T1 construct: The human histone deacetylase was partially purified from human T cell leukemia Jurkat cells
Procedure: Test 1: Determination of Histone Deacetylase Inhibitor Activity
The partial purification of human histone deacetylase, the preparation of [^3H] acetyl histones, and the assay for histone deacetylase activity were performed basically according to the method as proposed by Yoshida et al. as follows.
Partial Purification of Human Histone Deacetylase
The human histone deacetylase was partially purified from human T cell leukemia Jurkat cells. Jurkat cells (5×10^8 cells) were suspended in 40 mL of the HDA buffer consisting of 15 mM potassium phosphate, pH 7.5, 5% glycerol and 0.2 mM EDTA. After homogenization, nuclei were collected by centrifugation (35,000×g, 10 min) and homogenized in 20 mL of the same buffer supplemented with 1 M (NH4)2SO4. The viscous homogenate was sonicated and clarified by centrifugation (35,000×g, 10 min), and the deacetylase was precipitated by raising the concentration of (NH4)2SO4 to 3.5 M. The precipitated protein was dissolved in 10 mL of the HDA buffer and dialyzed against 4 liters of the same buffer. The dialyzate was then loaded onto a DEAE-cellulose (Whatman DE52) column (25×85 mm) equilibrated with the same buffer and eluted with 300 mL of a linear gradient (0-0.6 M) of NaCl. A single peak of histone deacetylase activity appeared between 0.3 and 0.4 M NaCl.
Preparation of [^3H] Acetyl Histone
To obtain [^3H] acetyl-labeled histone as the substrate for the histone deacetylase assay, 1×10^8 cells of Jurkat in 20 mL of RPMI-1640 medium (supplemented with 10% FBS, penicillin (50 units/mL) and streptomycin (50 μg/mL)) were incubated with 300 MBq [^3H] sodium acetate in the presence of 5 mM sodium butyrate for 30 minutes in 5% CO2-95% air atmosphere at 37° C. in a […] flask, harvested into a centrifuge tube (50 mL), collected by centrifugation at 1000 rpm for 10 minutes, and washed once with phosphate-buffered saline. The washed cells were suspended in 15 mL of ice-cold lysis buffer (10 mM Tris-HCl, 50 mM sodium bisulfite, 1% Triton X-100, 10 mM MgCl2, 8.6% sucrose, pH 6.5). After Dounce homogenization (30 stroke), the nuclei were collected by centrifugation at 1000 rpm for 10 minutes, washed 3 times with 15 mL of the lysis buffer, and once with 15 mL of ice-cooled washing buffer (10 mM Tris-HCl, 13 mM EDTA, pH 7.4) successively. The pellet was suspended in 6 mL of ice-cooled water using a mixer, and 68 μl of H2SO4 was added to the suspension to give a concentration of 0.4 N. After incubation at 4° C. for 1 hour, the suspension was centrifuged for 5 minutes at 15,000 rpm, and the supernatant was taken and mixed with 60 mL of acetone. After overnight incubation at −20° C., the coagulated material was collected by microcentrifugation, air-dried, and stored at −80° C.
Assay for Histone Deacetylase Activity
For the standard assay, 10 μl of [^3H] acetyl-labeled histones were added to 90 μl of the enzyme fraction, and the mixture was incubated at 25° C. for 30 minutes. The reaction was stopped by addition of 10 μl of HCl. The released [^3H] acetic acid was extracted with 1 mL of ethyl acetate, and 0.9 mL of the solvent layer was taken into 10 mL of toluene scintillation solution for determination of radioactivity.

[3] = test system: blood corpuscles (platelet, white blood corpuscle); assay: Test 4: Measurement of change rate of blood corpuscles; assay type: in vivo; settings: 4 mg/kg oral once a day for 14 days, male LEW rats, blood 24 hr after last administration
Procedure: Test 4: Measurement of Change Rate of Blood Corpuscles Experimental drugs were oral administered to rats (male LEW) once a day for continuous 14 days. The blood sample contained heparin and EDTA were collected at 24 hr after last administration, and the number of differential blood corpuscles were measured by auto-hemocytometer (Sysmex).

Compound	IC50 [2] [nM]	decrease rate (%) platelet [3] [%]	IC50 [1] [nM]	decrease rate (%) white blood corpuscle [3] [%]
Cl.Cl.O=C(/C=C/c1cnc(N[C@@H]2CCN(CCc3cccc(F)c3)C2)cn1)NO [Example 1, (2E)-3-[5-({(3R)-1-[2-(3-fluorophenyl)ethyl]-3-pyrrolidinyl}amino)-2-pyrazinyl]-N-hydroxyacrylamide dihydrochloride]	2.3	18.3	2.4	43.7
Cl.Cl.O=C(/C=C/c1cnc(N[C@@H]2CCCN(CCc3cccc(F)c3)C2)cn1)NO [Example 6, (2E)-3-[5-({(3R)-1-[2-(3-fluorophenyl)ethyl]-3-piperidinyl}amino)-2-pyrazinyl]-N-hydroxyacrylamide dihydrochloride]	1.7	24.3	0.65	72.2
Cl.Cl.O=C(/C=C/c1cnc(N[C@@H]2CCCN(CCC3CCCCC3)C2)cn1)NO [Example 25, (2E)-3-(5-{[(3R)-1-(2-cyclohexylethyl)-3-piperidinyl]amino}-2-pyrazinyl)-N-hydroxyacrylamide dihydrochloride]	1.8	6.2	2.2	63.1

Second part, led by results:

IC50 [2] [nM]	decrease rate (%) platelet [3] [%]	Compound	IC50 [1] [nM]	decrease rate (%) white blood corpuscle [3] [%]
3.3	9.4	Cl.Cl.O=C(/C=C/c1cnc(N[C@@H]2CCN(CCc3ccc(F)c(F)c3)C2)cn1)NO [Example 5, (2E)-3-[5-({(3R)-1-[2-(3,4-difluorophenyl)ethyl]-3-pyrrolidinyl}amino)-2-pyrazinyl]-N-hydroxyacrylamide dihydrochloride]	0.93	40.3
2.2	3.4	COc1ccc(CCN2CC[C@@H](Nc3cnc(/C=C/C(=O)NO)cn3)C2)cc1.Cl.Cl [Example 18, (2E)-N-hydroxy-3-[5-({(3R)-1-[2-(4-methoxyphenyl)ethyl]-3-pyrrolidinyl}amino)-2-pyrazinyl]acrylamide dihydrochloride]	2.2	31.7
1.6	14.2	Cl.Cl.O=C(/C=C/c1cnc(N[C@@H]2CCN(CCc3ccc(Br)cc3)C2)cn1)NO [Example 19, (2E)-3-[5-({(3R)-1-[2-(4-bromophenyl)ethyl]-3-pyrrolidinyl}amino)-2-pyrazinyl]-N-hydroxyacrylamide dihydrochloride]	1.3	38.1
2	18.6	Cl.Cl.O=C(/C=C/c1cnc(N[C@@H]2CCN(CCc3ccc(Cl)cc3)C2)cn1)NO [Example 23, (2E)-3-[5-({(3R)-1-[2-(4-chlorophenyl)ethyl]-3-pyrrolidinyl}amino)-2-pyrazinyl]-N-hydroxyacrylamide dihydrochloride]	1.7	64.6
